Test results from patent US20110262442A1, “COMPOSITIONS FOR TREATING CNS DISORDERS” (Adenios, Inc., priority 2009, published 2011).

How the values were obtained:
hCMEC/D3 cells [1] = assay: Jurkat cell migration across hCMEC/D3-seeded Transwell (in vitro BBB); format: cell-based, human; details: hCMEC/D3 on Transwell, migrated cells counted after 24 hours
Excerpt: The blood brain barrier (“BBB”) is comprised of endothelial cells. During late stages of EAE, lymphocytes are known to cross the BBB. In order to determine if adenosine receptor stimulation of brain endothelial cells could promote lymphocyte migration through the BBB, an in vitro BBB was established. The human brain endothelial cell line hCMEC/D3 (Weksler et al., “Blood-brain Barrier-specific Properties of a Human Adult Brain Endothelial Cell Line,” […] (2005); Poller et al., “The Human Brain Endothelial Cell Line hCMEC/D3 as a Human Blood-brain Barrier Model for Drug Transport Studies,” J. Neurochem. 107(5):1358-1368 (2008), which are hereby incorporated by reference in their entirety) was obtained, which has been previously described as having BBB properties.
hCMEC/D3 cells were seeded onto Transwell and allowed to grow to confluencey. 2×10^6 Jurkat cells were added to the upper chamber with or without NECA (general adenosine receptor [AR] agonist), CCPA (A1 AR agonist), CGS 21860 (A2A AR agonist), or DMSO vehicle. After 24 hours, migrated cells in the lower chamber were counted. Values are relative to the number of cells that migrate through non-HCMECD3 seeded transwells.

blood brain barrier [2] = assay: Fluorimetric analysis of labeled dextrans in brain after i.v. drug administration; format: in vivo, mice; details: wild type mice, 10,000 Da FITC-dextran; for dextran entry into the CNS compared to NECA administration: 3 h after i.v. administration; for dextran entry into the CNS compared to vehicle treatment: 3 h after i.v. co-administration
Description: C57BL/6 mice from Jackson Laboratories were used as wild types. All mice used were aged 7-9 weeks and weighed between 20-25 g. All rats were aged 8 weeks and weighed 200-220 g. Mice and rats were bred and housed under specific pathogen-free conditions.
The adenosine receptor agonists NECA, CCPA and CGS 21860 were purchased from Tocris. Each was dissolved in DMSO then diluted in PBS to the desired concentration; in most cases final DMSO concentrations were <0.5% (vol/vol). For vehicle controls, DMSO was diluted in PBS to the same concentration. Dehydrated dextrans labeled with either FITC or Texas Red were purchased from Invitrogen and re-suspended in PBS to 10 mg ml^−1. All experiments involving dextran injection used 0.5 mg dextran in PBS. In experiments where drug and dextran were injected concomitantly, 0.5 mg of dextran was mixed with the drug to the desired concentration in a final volume of 200 μl. All injections were retro-orbital i.v. with a 27-gauge needle. In the SCH 58261 experiment, groups were administered vehicle or SCH 58261 for 4 d. Vehicle/drug and dextrans were injected on day 5 and tissues were collected 3 h after vehicle/drug administration. In Lexiscan experiments, Lexiscan was administered i.v. with 3 injections, 5 min apart and tissues were collected at 15 min unless otherwise indicated.
In dose-response experiments and experiments with the A1 AR and A2A AR knock-out mice, drugs and dextrans were injected concomitantly. After 3 h, the mice were anesthetized with ketamine/xylazine and subjected to a nose cone containing isoflurane. They were perfused with 25-50 ml ice-cold PBS through the left ventricle of the heart then decapitated. Their brains were removed, weighed and frozen for later analysis.
Ice-cold 50 mM Tris-Cl (pH 7.6) was added to frozen brains (100 μl per 100 mg brain) and were to thawed on ice. They were homogenized manually with ˜45 strokes of a dounce homogenizer in plastic 1.5 ml microfuge tubes then spun at 16.1 g in a microfuge for 30 min at room temperature (rt). The supernatants were transferred to new tubes and an equal volume absolute methanol was added. The samples were spun again at 16.1 g for 30 min at rt. Supernatant (200 μl) was transferred to a Corning costar 96 well black polystyrene assay plate (clear bottom). Additionally, a series of standards containing 0.001-10 μg ml^−1 dextran in 50% Tris-Cl/50% absolute methanol (vol/vol) was added to each plate. Absolute concentrations of dextrans were derived from these standard curves. Fluorimetric analysis was performed on a BioTek Synergy 4. FITC-dextran was detected at 488/519 (excitation/emission) and Texas Red-dextran was detected at 592/618.

brain endothelial cells = assay: Actin stress fiber induction in brain endothelial cells; format: cell-based
Description: To test this brain endothelial cells were treated with either CCPA (to agonize A1 adenosine receptors) or […] (to agonize the A2A adenosine receptor).

hCMEC/D3 cells [3] = assay: cAMP levels in human brain endothelial cells (cAMP Screen kit); format: cell-based; details: 15 minutes treatment, various concentrations (CCPA: at high levels)
Description: Adenosine receptor activation regulates cAMP levels in cells. In order to determine the sensitivity of human brain endothelial cells to adenosine receptor induced cAMP regulation, human brain endothelial cells were cultured with adenosine receptor agonists at various concentrations, followed by cAMP level analysis, as shown in FIG. 13.
HCMECD3 cells were grown to confluencey on 24 well plates. As adenosine receptor (“AR”) stimulation is known to influence cAMP levels, cells were treated with or without various concentrations of NECA (general AR agonist), CCPA (A1 AR agonist), CGS 21860 (A2A AR agonist), DMSO vehicle, or Forksolin (induces cAMP). After 15 minutes, lysis buffer was added and the cells were frozen at −80 C to stop the reaction. Duplicate samples were used for each condition. cAMP levels were assayed using a cAMP Screen kit (Applied Biosystems, Foster City, Calif.).

Z310 cells = assay: Jurkat cell migration across Z310-seeded Transwell (choroid plexus); format: cell-based, murine; details: Z310 cells on Transwell, migrated cells counted after 24 hours, n=1
Description: The choroid plexus (“CP”) controls lymphocyte migration into the CNS. The CP expresses the A1 and A2A adenosine receptors. EAE is prevented in mice when A2A adenosine receptor activity is blocked. EAE is enhanced when the A1 adenosine receptor is missing. It was hypothesized that A2A adenosine receptor activation promotes lymphocyte migration across the CP. Z310 cells are a murine choroid plexus cell line. To test the hypothesis, Transwell membranes were seeded with Z310 cells and allowed to grow to confluencey. 2×10^6 Jurkat cells were added to the upper chamber with or with out NECA (n=1, general AR agonist), CCPA (n=1, AAR agonist), CGS 21860 (n=1, A2AAR agonist), or DMSO vehicle (n=1). After 24 hours, migrated cells in the lower chamber were counted. Values are relative to the number of cells that migrate through non-Z310 seeded transwells and the results are shown in FIG. 12.

blood brain barrier [4] = assay: FITC-Dextran extravasation through the brain endothelium (brain sections); format: in vivo, mice; details: 10,000 MW FITC Dextran IP, 30 minutes
Description: In order to examine the effects of caffeine, a general adenosine receptor antagonist, on blood brain barrier permeability, mice were fed caffeine for several days and then injected with FITC Dextran, commonly used to assess endothelial permeability.
More particularly, mice were fed 0.6 g/l caffeine (Sigma, St. Louis, Mo.) in water or regular water ad lib for five days. Mice were injected IP with FITC Dextran (10,000 MW, Molecular Probes, Eugene, Oreg.) and after 30 minutes mice were perfused with ice cold PBS via the left ventricle. Brains were removed and snap frozen in OCT (Tissue Tek, Torrance, Calif.) and stored at −80° C. until sectioning. Tissue sections (5 μm) were stained with hematoxylin for light microscopy and with DAPI for a fluorescent counterstain.

[5] = tested on: Experimental Autoimmune Encephalomyelitis (EAE); assay: MOG-induced EAE induction and daily scoring; format: in vivo, mice
Excerpt: Cd73^−/− mice have been previously described (Thompson et al., “Crucial Role for Ecto-5′-Nucleotidase (CD73) in Vascular Leakage During Hypoxia,” J. Exp. Med. 200:1395-1405 (2004), which is hereby incorporated by reference in its entirety) and have been backcrossed to C57BL/6 for 14 generations. Cd73 mice have no overt susceptibility to infection and appear normal based on the size and cellular composition of their lymphoid organs and their T and B cell responses in in vivo and in vitro assays (Thompson et al., “Crucial Role for Ecto-5′-Nucleotidase (CD73) in Vascular Leakage During Hypoxia,” J. Exp. Med. 200:1395-1405 (2004), which is hereby incorporated by reference in its entirety). C57BL/6 and tcrα^−/− mice on the C57BL/6 background were purchased from The Jackson Laboratories. Mice were bred and housed under specific pathogen-free conditions at Cornell University or the University of Turku. For adenosine receptor blockade experiments, mice were given drinking water supplemented with 0.6 g/L of caffeine (Sigma) or 2 mg/kg SCH58261 (1 mg/kg s.c. and 1 mg/kg i.p.) in DMSO (45% vol. in PBS) or 45% DMSO alone starting 1 day before EAE induction and continuing throughout the experiment. All procedures performed on mice were approved by the relevant animal review committee.
EAE was induced by subjecting mice to the myelin oligodendrocyte glycoprotein (“MOG”) EAE-inducing regimen as described in Swanborg, “Experimental Autoimmune Encephalomyelitis in Rodents as a Model for Human Demyelinating Disease,” Clin. Immunol. Immunopathol. 77:4-13 (1995) and Bynoe et al., “Epicutaneous Immunization with Autoantigenic Peptides Induces T Suppressor Cells that Prevent Experimental Allergic Encephalomyelitis,” Immunity 19:317-328 (2003), which are hereby incorporated by reference in their entirety. Briefly, a 1:1 emulsion of MOG35-55 peptide (3 mg/ml in PBS) (Invitrogen) and complete Freund's adjuvant (CFA, Sigma) was injected subcutaneously (50 μl) into each flank. Pertussis toxin (PTX, 20 ng) (Biological Laboratories Inc.) was given intravenously (200 μl in PBS) at the time of immunization and again 2 days later. Mice were scored daily for EAE based on disease symptom severity; 0=no disease, 0.5-1=weak/limp tail, 2=limp tail and partial hind limb paralysis, 3=total hind limb paralysis, 4=both hind limb and fore limb paralysis, 5=death. Mice with a score of 4 were euthanized.

Row | Molecule | lymphocyte (Jurkat) migration across the in vitro BBB (hCMEC/D3 cells [1]) | dextran entry into the CNS compared to NECA administration (blood brain barrier [2]) | dextran entry into the CNS compared to vehicle treatment (blood brain barrier [2]) | actin stress fibers compared to vehicle alone (brain endothelial cells) | cAMP levels (hCMEC/D3 cells [3]) | lymphocyte (Jurkat) migration across the CP (Z310 cells) | FITC-Dextran extravasation across the blood brain barrier (blood brain barrier [4]; CD73−/− mice fed 0.6 g/l caffeine for five days, compared with wild type mice) | FITC-Dextran extravasation across the blood brain barrier (blood brain barrier [4]; wild type mice (caffeine feeding experiment), compared with CD73−/− mice) | EAE development ([5]; cd73−/− mice, caffeine 0.6 g/L in drinking water) | EAE development ([5]; wild type mice, caffeine 0.6 g/L in drinking water from 1 day prior to and throughout EAE experiment) | development of EAE (mean EAE score) ([5]; wild-type mice, 15 units/kg body weight i.p. every 4 days, vs PBS vehicle)
1 | OC[C@H]1O[C@@H](n2cnc3c(NC4CCCC4)nc(Cl)nc32)[C@H](O)[C@@H]1O [CCPA, 2-chloro-N^6-cyclopentyladenosine] | induced lymphocyte migration at high levels | significantly lower than that observed after NECA administration | increased dextran entry into the CNS | induction of actin stress fibers was observed | increased cAMP levels | induced lymphocyte migration at high levels | – | – | – | – | –
2 | CCNC(=O)[C@H]1O[C@@H](n2cnc3c(N)nc(NCCc4ccc(CCC(=O)O)cc4)nc32)[C@H](O)[C@@H]1O [CGS 21680, 4-[2-[[6-Amino-9-(N-ethyl-b-D-ribofuranuronamidosyl)-9H-purin-2-yl]amino]ethyl]benzenepropanoic acid] | promoted lymphocyte migration across the in vitro BBB when used at a lower concentration | significantly lower than that observed after NECA administration | increased dextran entry into the CNS | – | slightly increased cAMP levels | promoted lymphocyte migration across the CP | – | – | – | – | –
3 | Cn1c(=O)c2c(ncn2C)n(C)c1=O [caffeine] | – | – | – | – | – | – | less FITC-Dextran extravasation | more FITC-dextran extravasation | did not develop EAE | dramatically protected against EAE development | –
4 | PEG-ADA: PEGylated adenosine deaminase (protein, UniProt P56658 2-363, looked up, PEGylated, PEGylated adenosine deaminase) Adenosine deaminase: AQTPAFNKPKVELHVHLDGAIKPETILYYGRKRGIALPADTPEELQNIIGMDKPLSLPEFLAKFDYYMPAIAGCREAVKRIAYEFVEMKAKDGVVYVEVRYSPHLLANSKVEPIPWNQAEGDLTPDEVVSLVNQGLQEGERDFGVKVRSILCCMRHQPSWSSEVVELCKKYREQTVVAIDLAGDETIEGSSLFPGHVKAYAEAVKSGVHRTVHAGEVGSANVVKEAVDTLKTERLGHGYHTLEDATLYNRLRQENMHFEVCPWSSYLTGAWKPDTEHPVVRFKNDQVNYSLNTDDPLIFKSTLDTDYQMTKNEMGFTEEEFKRLNINAAKSSFLPEDEKKELLDLLYKAYGMPSPASAEQCL | – | – | – | – | – | – | – | – | – | – | inhibits the development of EAE
